Test results: US10385065B2, “Antibacterial compounds” (priority 2014, dated 2019)
In brackets after ≈: the same amount, converted by molar mass. Like-named read-outs stand apart in the source and are kept apart here.

Tests used:
Format in all cases: cell-based
[1] = tested on: S. aureus NRS482 MRSA FQ resistant; assay: MIC, S. aureus NRS482; settings: Staphylococcus aureus; Table 2
[2] = tested on: Staphylococcus aureus ATCC 29213; assay: MIC, broth microdilution, S. aureus ATCC 29213
[3] = tested on: Escherichia coli ATCC 25922; assay: MIC, broth microdilution, E. coli ATCC 25922; settings: ATCC25922, Table 1, wild type strain
[4] = tested on: S. aureus NRS127 MRSA LZD resistant; assay: MIC, S. aureus NRS127; settings: Staphylococcus aureus; Table 2
[5] = tested on: Haemophilus influenzae ATCC 49247; assay: MIC, H. influenzae ATCC 49247; settings: ATCC49247, Table 4
[6] = tested on: human hepatic cell line (HepG2 ATCC HB-8065); assay: Human cell viability assay (CellTiter-Glo), HepG2; settings: HepG2, 24 h incubation, tested over 1-128 μg/mL, read-out: IC50 values against HepG2
Experimental: Compounds are assessed for potential non-specific cytotoxic effects against a human hepatic cell line (HepG2 ATCC HB-8065). HepG2 cells are seeded at 20,000 cells/well in 96-well microtitre plates in minimal essential medium (MEM) supplemented with a final concentration of 10% FBS and 1 mM sodium pyruvate. After 24 h compound dilutions are prepared in Dulbecco's minimum essential media (DMEM) supplemented with final concentrations of 0.001% FBS, 0.3% bovine albumin and 0.02% HEPES and added to cells. Compounds are tested in two-fold serial dilutions over a final concentration range of 1-128 μg/mL in a final DMSO concentration of 1% vol/vol. Chlorpromazine is used as a positive control. Cells are incubated with compound at 37° C. and 5% CO2 for a further 24 h, after which time the CellTiter-Glo reagent (Promega) is added. Luminescence is measured on a BMG Omega plate reader. Data are analysed using GraphPad Prism software to determine the concentration of compound that inhibits cell viability by fifty percent (IC50).

[7] = tested on: Enterococcus faecium ATCC 19434; assay: MIC, E. faecium ATCC 19434; settings: ATCC19434, Table 2
[8] = tested on: S. aureus (MRSA) ATCC 43300; assay: MIC, S. aureus ATCC 43300; settings: Staphylococcus aureus; Table 2; read-out: MIC S. aureus (MRSA) ATCC 43300 Heterogeneous MRSA strain
S. aureus NRS1 MRSA = assay: MIC, S. aureus NRS1; settings: Staphylococcus aureus; Table 2; read-out: MIC S. aureus NRS1 MRSA AMG & TET resistant
[9] = ATCC29213, Table 1, wild type strain, read-out: MIC S. aureus ATCC 29213
[10] = ATCC 29213 / MSSA, Table 2, read-out: MIC S. aureus (MSSA) ATCC 29213 CLSI control strain

Row | MIC [1] [µg/mL] | MIC [2, 9] [µg/mL] | MIC [2, 10] [µg/mL] | MIC [3] [µg/mL] | MIC [4] [µg/mL] | MIC [5] [µg/mL] | IC50 [6] [µg/mL] | MIC [7] [µg/mL] | MIC [8] [µg/mL] | MIC (S. aureus NRS1 MRSA) [µg/mL] | Compound
1 | < 1 | < 1 | < 1 | 10 to 100 (≈ 28.1 to 281 µM) | < 1 | 1 to 10 (≈ 2.81 to 28.1 µM) | – | – | – | – | Cc1c(-c2ccc3[nH]cnc3c2)ccc2c3ocnc3c(=O)n(C3CC3)c12 [Compound 15, 7-(1H-benzimidazol-5-yl)-5-cyclopropyl-6-methyl-oxazolo[4,5-c]quinolin-4-one]
2 | – | < 1 | < 1 | 10 to 100 (≈ 25.6 to 256 µM) | – | 1 to 10 (≈ 2.56 to 25.6 µM) | > 100 | > 100 | – | – | Cc1nc2c(=O)n(C3CC3)c3c(C)c(-c4cc(F)c(C#N)cc4F)ccc3c2o1 [Compound 24]
3 | – | 10 to 100 (≈ 25.8 to 258 µM) | 1 to 10 (≈ 2.58 to 25.8 µM) | 10 to 100 (≈ 25.8 to 258 µM) | – | 1 to 10 (≈ 2.58 to 25.8 µM) | 10 to 100 (≈ 25.8 to 258 µM) | 10 to 100 (≈ 25.8 to 258 µM) | – | – | Cc1nc2c(=O)n(C3CC3)c3c(C)c(-c4ccc(C(C)(C)N)cc4)ccc3c2o1 [Compound 28, 7-[4-(2-aminopropan-2-yl)phenyl]-5-cyclopropyl-2,6-dimethyloxazolo[4,5-c]quinolin-4-one]
4 | – | 1 to 10 (≈ 3.12 to 31.2 µM) | 1 to 10 (≈ 3.12 to 31.2 µM) | 10 to 100 (≈ 31.2 to 312 µM) | – | 1 to 10 (≈ 3.12 to 31.2 µM) | > 100 | > 100 | – | – | Cc1nc2c(=O)n(C3CC3)c3c(C)c(-c4cn[nH]c4)ccc3c2o1 [Compound 29, 5-cyclopropyl-2,6-dimethyl-7-(1H-pyrazol-4-yl)oxazolo[4,5-c]quinolin-4-one]
5 | > 100 | > 100 | > 100 | > 100 | – | > 100 | – | – | – | – | Cc1c(-c2ccc(C(=O)NCC(=O)O)cc2)ccc2c3ocnc3c(=O)n(C3CC3)c12 [Compound 31, 2-[{4-(5-cyclopropyl-6-methyl-4-oxo-oxazolo[4,5-c]quinolin-7-yl)benzoyl}amino]acetic acid]
6 | – | < 1 | < 1 | > 100 | – | 10 to 100 (≈ 26.8 to 268 µM) | 10 to 100 (≈ 26.8 to 268 µM) | > 100 | – | – | Cc1nc2c(=O)n(C3CC3)c3c(C)c(-c4ccc(C#N)cc4F)ccc3c2o1 [Compound 33, 4-(5-cyclopropyl-2,6-dimethyl-4-oxo-oxazolo[4,5-c]quinolin-7-yl)-3-fluoro-benzonitrile]
7 | – | < 1 | < 1 | 1 to 10 (≈ 2.52 to 25.2 µM) | – | 1 to 10 (≈ 2.52 to 25.2 µM) | > 100 | > 100 | – | – | Cc1nc2c(=O)n(C3CC3)c3c(C)c(-c4cc(F)c(CO)cc4F)ccc3c2o1 [Compound 34, 5-cyclopropyl-7-[2,5-difluoro-4-(hydroxymethyl)phenyl]-2,6-dimethyl-oxazolo[4,5-c]quinolin-4-one]
8 | 1 to 10 (≈ 2.44 to 24.4 µM) | < 1 | < 1 | 1 to 10 (≈ 2.44 to 24.4 µM) | – | 1 to 10 (≈ 2.44 to 24.4 µM) | 10 to 100 (≈ 24.4 to 244 µM) | 10 to 100 (≈ 24.4 to 244 µM) | < 1 | 1 to 10 (≈ 2.44 to 24.4 µM) | Cc1nc2c(=O)n(C3CC3)c3c(C)c(-c4cc(F)c(C(N)=O)cc4F)ccc3c2o1 [Compound 35, 4-(5-cyclopropyl-2,6-dimethyl-4-oxo-oxazolo[4,5-c]quinolin-7-yl)-2,5-difluoro-benzamide]
9 | – | < 1 | < 1 | 1 to 10 (≈ 3.02 to 30.2 µM) | – | 1 to 10 (≈ 3.02 to 30.2 µM) | > 100 | > 100 | – | – | Cc1c(-c2ccc(N)cc2)ccc2c3ocnc3c(=O)n(C3CC3)c12 [Compound 40, 7-(4-aminophenyl)-5-cyclopropyl-6-methyl-oxazolo[4,5-c]quinolin-4-one]
10 | – | 1 to 10 (≈ 2.77 to 27.7 µM) | 1 to 10 (≈ 2.77 to 27.7 µM) | > 100 | – | 10 to 100 (≈ 27.7 to 277 µM) | 10 to 100 (≈ 27.7 to 277 µM) | > 100 | – | – | Cc1c(-c2cnc(N(C)C)nc2)ccc2c3ocnc3c(=O)n(C3CC3)c12 [Compound 41, 5-cyclopropyl-7-[2-(dimethylamino)pyrimidin-5-yl]-6-methyl-oxazolo[4,5-c]quinolin-4-one]
11 | – | < 1 | < 1 | 1 to 10 (≈ 2.79 to 27.9 µM) | – | > 100 | 10 to 100 (≈ 27.9 to 279 µM) | > 100 | – | – | Cc1c(-c2ccc3nonc3c2)ccc2c3ocnc3c(=O)n(C3CC3)c12 [Compound 46, 7-(2,1,3-benzoxadiazol-5-yl)-5-cyclopropyl-6-methyl-oxazolo[4,5-c]quinolin-4-one]
12 | – | 1 to 10 (≈ 2.37 to 23.7 µM) | 1 to 10 (≈ 2.37 to 23.7 µM) | 10 to 100 (≈ 23.7 to 237 µM) | – | 1 to 10 (≈ 2.37 to 23.7 µM) | 10 to 100 (≈ 23.7 to 237 µM) | > 100 | – | – | Cc1c(-c2ccc(NCc3ccccc3)nc2)ccc2c3ocnc3c(=O)n(C3CC3)c12 [Compound 48, 7-[6-(benzylamino)pyridin-3-yl]-5-cyclopropyl-6-methyl-oxazolo[4,5-c]quinolin-4-one]
13 | – | 1 to 10 (≈ 2.6 to 26 µM) | 1 to 10 (≈ 2.6 to 26 µM) | 1 to 10 (≈ 2.6 to 26 µM) | – | 10 to 100 (≈ 26 to 260 µM) | 10 to 100 (≈ 26 to 260 µM) | > 100 | – | – | Cc1nc2c(=O)n(C3CC3)c3cc(N4CC[C@@H](C(C)(C)N)C4)c(F)cc3c2o1 [Compound 50, 7-[(3R)-3-(2-aminopropan-2-yl)pyrrolidin-1-yl]-5-cyclopropyl-8-fluoro-2-methyl-oxazolo[4,5-c]quinolin-4-one]
14 | – | 1 to 10 (≈ 2.7 to 27 µM) | 1 to 10 (≈ 2.7 to 27 µM) | 10 to 100 (≈ 27 to 270 µM) | – | 1 to 10 (≈ 2.7 to 27 µM) | > 100 | > 100 | – | – | Cc1nc2c(=O)n(C3CC3)c3cc(N4CCC(C)(N)CC4)c(F)cc3c2o1 [Compound 55, 7-(4-amino-4-methylpiperidin-1-yl)-5-cyclopropyl-8-fluoro-2-methyl-oxazolo[4,5-c]quinolin-4-one]
15 | – | 1 to 10 (≈ 2.92 to 29.2 µM) | 1 to 10 (≈ 2.92 to 29.2 µM) | 1 to 10 (≈ 2.92 to 29.2 µM) | – | 1 to 10 (≈ 2.92 to 29.2 µM) | 10 to 100 (≈ 29.2 to 292 µM) | 10 to 100 (≈ 29.2 to 292 µM) | – | – | Cc1nc2c(=O)n(C3CC3)c3cc(N4CCC(N)C4)c(F)cc3c2o1 (centres unmarked) [Compound 56, 7-(3-aminopyrrolidin-1-yl)-5-cyclopropyl-8-fluoro-2-methyl-oxazolo[4,5-c]quinolin-4-one]
16 | – | 1 to 10 (≈ 2.75 to 27.5 µM) | 1 to 10 (≈ 2.75 to 27.5 µM) | 10 to 100 (≈ 27.5 to 275 µM) | – | 1 to 10 (≈ 2.75 to 27.5 µM) | 10 to 100 (≈ 27.5 to 275 µM) | > 100 | – | – | NC(=O)c1ccc(-c2cc3c(cc2F)c2ocnc2c(=O)n3C2CC2)cc1 [Compound 58, 4-(5-cyclopropyl-8-fluoro-4-oxo-oxazolo[4,5-c]quinolin-7-yl)benzamide]
17 | – | < 1 | < 1 | 10 to 100 (≈ 29.7 to 297 µM) | – | < 1 | 10 to 100 (≈ 29.7 to 297 µM) | > 100 | – | – | O=c1c2ncoc2c2cc(F)c(-c3ccc(O)cc3)cc2n1C1CC1 [Compound 64, 5-cyclopropyl-8-fluoro-7-(4-hydroxyphenyl)oxazolo[4,5-c]quinolin-4-one]
18 | – | 1 to 10 (≈ 2.83 to 28.3 µM) | 1 to 10 (≈ 2.83 to 28.3 µM) | 1 to 10 (≈ 2.83 to 28.3 µM) | – | < 1 | > 100 | 10 to 100 (≈ 28.3 to 283 µM) | – | – | Nc1ccc(-c2cc3c(cc2F)c2ocnc2c(=O)n3C2CC2)cc1F [Compound 71, 7-(4-amino-3-fluoro-phenyl)-5-cyclopropyl-8-fluoro-oxazolo[4,5-c]quinolin-4-one]
19 | – | < 1 | < 1 | 10 to 100 (≈ 26 to 260 µM) | – | < 1 | 10 to 100 (≈ 26 to 260 µM) | > 100 | – | – | Cc1nc2c(=O)n(C3CC3)c3cc(-c4cc(F)c(N)cc4F)c(F)cc3c2o1 [Compound 79, 7-(4-amino-2,5-difluoro-phenyl)-5-cyclopropyl-8-fluoro-2-methyl-oxazolo[4,5-c]quinolin-4-one]
20 | – | 1 to 10 (≈ 2.91 to 29.1 µM) | 1 to 10 (≈ 2.91 to 29.1 µM) | 1 to 10 (≈ 2.91 to 29.1 µM) | – | 1 to 10 (≈ 2.91 to 29.1 µM) | > 100 | > 100 | – | – | NCC1CCN(c2nc3c(cc2F)c2ocnc2c(=O)n3C2CC2)C1 (centres unmarked) [Compound 81, 7-[3-(aminomethyl)pyrrolidin-1-yl]-5-cyclopropyl-8-fluoro-oxazolo[4,5-c][1,8]naphthyridin-4-one]
21 | < 1 | < 1 | < 1 | 1 to 10 | – | 1 to 10 | > 100 | – | – | – | CC(=O)OCc1nc2c(=O)n(C3CC3)c3c(C)c(-c4cc(F)c(N)cc4F)ccc3c2o1 [Compound 98, [7-(4-amino-2,5-difluorophenyl)-5-cyclopropyl-6-methyl-4-oxo-4H,5H-[1,3]oxazolo[4,5-c]quinolin-2-yl]methyl acetate]
22 | 1 to 10 (≈ 2.36 to 23.6 µM) | < 1 | < 1 | 10 to 100 (≈ 23.6 to 236 µM) | – | 1 to 10 (≈ 2.36 to 23.6 µM) | 10 to 100 (≈ 23.6 to 236 µM) | – | – | – | Cc1c(-c2cc(F)c(N)cc2F)ccc2c3oc(CN(C)C)nc3c(=O)n(C3CC3)c12 [Compound 101, 7-(4-amino-2,5-difluoro-phenyl)-5-cyclopropyl-2-[(dimethylamino)methyl]-6-methyl-oxazolo[4,5-c]quinolin-4-one]
